± gives the expanded uncertainty stated by the source.
Assay: molar heat capacity at constant pressure
Conditions: 101.33 kPa

With `CCCC(C)O` (stereo not drawn) [pentan-2-ol] the “molar heat capacity at constant pressure” value (79.67 K, Glass) was 63.18 ± 1.6 J/K/mol, the “molar heat capacity at constant pressure” value (80.46 K, Glass) was 63.33 ± 1.6 J/K/mol and the “molar heat capacity at constant pressure” value (82.3 K, Glass) was 64.14 ± 1.6 J/K/mol. For the same compound, the “molar heat capacity at constant pressure” value (84.42 K, Glass) was 67.58 ± 1.7 J/K/mol, the “molar heat capacity at constant pressure” value (85.14 K, Glass) was 66.47 ± 1.7 J/K/mol and the “molar heat capacity at constant pressure” value (85.32 K, Glass) was 67.84 ± 1.7 J/K/mol. The “molar heat capacity at constant pressure” value (86.75 K, Glass) was 68.64 ± 1.7 J/K/mol, the “molar heat capacity at constant pressure” value (87.94 K, Glass) was 69.06 ± 1.7 J/K/mol and the “molar heat capacity at constant pressure” value (88.7 K, Glass) was 70.03 ± 1.7 J/K/mol. The “molar heat capacity at constant pressure” value (90.63 K, Glass) was 71.1 ± 2.1 J/K/mol, the “molar heat capacity at constant pressure” value (90.73 K, Glass) was 70.94 ± 2.1 J/K/mol and the “molar heat capacity at constant pressure” value (92.44 K, Glass) was 69.53 ± 2.1 J/K/mol. For the same compound, the “molar heat capacity at constant pressure” value (92.56 K, Glass) was 72.26 ± 2.2 J/K/mol, the “molar heat capacity at constant pressure” value (93.14 K, Glass) was 65.87 ± 2 J/K/mol and the “molar heat capacity at constant pressure” value (93.54 K, Glass) was 72.61 ± 2.1 J/K/mol. The “molar heat capacity at constant pressure” value (94.47 K, Glass) was 69.28 ± 2.1 J/K/mol, the “molar heat capacity at constant pressure” value (94.5 K, Glass) was 73.35 ± 2.1 J/K/mol and the “molar heat capacity at constant pressure” value (95.82 K, Glass) was 74.84 ± 2.2 J/K/mol. For the same compound, the “molar heat capacity at constant pressure” value (96.37 K, Glass) was 74.28 ± 2.1 J/K/mol, the “molar heat capacity at constant pressure” value (96.39 K, Glass) was 69.82 ± 2.2 J/K/mol and the “molar heat capacity at constant pressure” value (96.44 K, Glass) was 74.4 ± 2.1 J/K/mol. The “molar heat capacity at constant pressure” value (96.51 K, Glass) was 73.84 ± 2.1 J/K/mol, the “molar heat capacity at constant pressure” value (97.85 K, Glass) was 74.9 ± 2.2 J/K/mol and the “molar heat capacity at constant pressure” value (98.3 K, Glass) was 70.93 ± 2.4 J/K/mol. The “molar heat capacity at constant pressure” value (98.39 K, Glass) was 75.87 ± 2.4 J/K/mol, the “molar heat capacity at constant pressure” value (99.21 K, Glass) was 76.42 ± 2.2 J/K/mol and the “molar heat capacity at constant pressure” value (99.81 K, Glass) was 76.63 ± 2.2 J/K/mol. The “molar heat capacity at constant pressure” value (100.21 K, Glass) was 72.31 ± 2.1 J/K/mol, the “molar heat capacity at constant pressure” value (100.33 K, Glass) was 77.32 ± 2.4 J/K/mol and the “molar heat capacity at constant pressure” value (101.76 K, Glass) was 76.89 ± 2.2 J/K/mol. The “molar heat capacity at constant pressure” value (102.06 K, Glass) was 77.9 ± 2.2 J/K/mol, the “molar heat capacity at constant pressure” value (102.12 K, Glass) was 72.26 ± 2.1 J/K/mol and the “molar heat capacity at constant pressure” value (102.28 K, Glass) was 78.12 ± 2.3 J/K/mol. The “molar heat capacity at constant pressure” value (103.71 K, Glass) was 77.71 ± 2.2 J/K/mol, the “molar heat capacity at constant pressure” value (104.04 K, Glass) was 72.83 ± 2.1 J/K/mol and the “molar heat capacity at constant pressure” value (104.24 K, Glass) was 78.97 ± 2.2 J/K/mol. For the same compound, the “molar heat capacity at constant pressure” value (104.91 K, Glass) was 79.34 ± 2.2 J/K/mol, the “molar heat capacity at constant pressure” value (105.66 K, Glass) was 79.19 ± 2.2 J/K/mol and the “molar heat capacity at constant pressure” value (105.95 K, Glass) was 74.19 ± 2.1 J/K/mol. For the same compound, the “molar heat capacity at constant pressure” value (106.19 K, Glass) was 80.14 ± 2.3 J/K/mol, the “molar heat capacity at constant pressure” value (107.61 K, Glass) was 80.61 ± 2.3 J/K/mol and the “molar heat capacity at constant pressure” value (107.78 K, Glass) was 81.22 ± 2.3 J/K/mol. The “molar heat capacity at constant pressure” value (107.87 K, Glass) was 75.02 ± 2.2 J/K/mol, the “molar heat capacity at constant pressure” value (108.15 K, Glass) was 81.83 ± 2.3 J/K/mol and the “molar heat capacity at constant pressure” value (109.56 K, Glass) was 81.6 ± 2.3 J/K/mol. The “molar heat capacity at constant pressure” value (109.78 K, Glass) was 76.24 ± 2.2 J/K/mol, the “molar heat capacity at constant pressure” value (110.11 K, Glass) was 83.03 ± 2.3 J/K/mol and the “molar heat capacity at constant pressure” value (110.65 K, Glass) was 82.72 ± 2.3 J/K/mol. For the same compound, the “molar heat capacity at constant pressure” value (111.51 K, Glass) was 82.56 ± 2.4 J/K/mol, the “molar heat capacity at constant pressure” value (111.7 K, Glass) was 77.13 ± 2.2 J/K/mol and the “molar heat capacity at constant pressure” value (112.08 K, Glass) was 84.03 ± 2.3 J/K/mol. For the same compound, the “molar heat capacity at constant pressure” value (113.47 K, Glass) was 83.55 ± 2.4 J/K/mol, the “molar heat capacity at constant pressure” value (113.52 K, Glass) was 84.21 ± 2.5 J/K/mol and the “molar heat capacity at constant pressure” value (113.62 K, Glass) was 77.89 ± 2.2 J/K/mol. For the same compound, the “molar heat capacity at constant pressure” value (114.05 K, Glass) was 85.23 ± 2.4 J/K/mol, the “molar heat capacity at constant pressure” value (115.43 K, Glass) was 84.36 ± 2.6 J/K/mol and the “molar heat capacity at constant pressure” value (115.53 K, Glass) was 78.83 ± 2.5 J/K/mol. The “molar heat capacity at constant pressure” value (116.02 K, Glass) was 86.13 ± 2.4 J/K/mol, the “molar heat capacity at constant pressure” value (116.41 K, Glass) was 85.6 ± 2.4 J/K/mol and the “molar heat capacity at constant pressure” value (117.39 K, Glass) was 85.19 ± 3 J/K/mol. For the same compound, the “molar heat capacity at constant pressure” value (117.45 K, Glass) was 79.39 ± 3 J/K/mol, the “molar heat capacity at constant pressure” value (117.99 K, Glass) was 86.99 ± 2.4 J/K/mol and the “molar heat capacity at constant pressure” value (119.31 K, Glass) was 86.83 ± 3.2 J/K/mol. The “molar heat capacity at constant pressure” value (119.36 K, Glass) was 85.74 ± 2.4 J/K/mol, the “molar heat capacity at constant pressure” value (119.37 K, Glass) was 80.16 ± 3.2 J/K/mol and the “molar heat capacity at constant pressure” value (119.97 K, Glass) was 87.03 ± 2.4 J/K/mol. For the same compound, the “molar heat capacity at constant pressure” value (121.3 K, Glass) was 80.85 ± 2.3 J/K/mol, the “molar heat capacity at constant pressure” value (121.33 K, Glass) was 86.41 ± 2.4 J/K/mol and the “molar heat capacity at constant pressure” value (121.95 K, Glass) was 88.36 ± 2.4 J/K/mol. For the same compound, the “molar heat capacity at constant pressure” value (122.2 K, Glass) was 88.5 ± 2.4 J/K/mol, the “molar heat capacity at constant pressure” value (123.23 K, Glass) was 82.6 ± 2.9 J/K/mol and the “molar heat capacity at constant pressure” value (123.29 K, Glass) was 88 ± 3 J/K/mol. The “molar heat capacity at constant pressure” value (123.94 K, Glass) was 89.95 ± 2.4 J/K/mol, the “molar heat capacity at constant pressure” value (125.11 K, Glass) was 91.4 ± 2.5 J/K/mol and the “molar heat capacity at constant pressure” value (125.15 K, Glass) was 84.47 ± 2.5 J/K/mol. The “molar heat capacity at constant pressure” value (125.26 K, Glass) was 89.98 ± 2.4 J/K/mol, the “molar heat capacity at constant pressure” value (125.92 K, Glass) was 92.63 ± 2.5 J/K/mol and the “molar heat capacity at constant pressure” value (127.07 K, Glass) was 88.92 ± 2.6 J/K/mol. For the same compound, the “molar heat capacity at constant pressure” value (127.21 K, Glass) was 95.14 ± 2.7 J/K/mol, the “molar heat capacity at constant pressure” value (134.18 K, Liquid) was 138.36 ± 3.4 J/K/mol and the “molar heat capacity at constant pressure” value (134.47 K, Liquid) was 145.14 ± 3.5 J/K/mol. The “molar heat capacity at constant pressure” value (135.24 K, Liquid) was 146.4 ± 3.5 J/K/mol, the “molar heat capacity at constant pressure” value (136 K, Liquid) was 146.52 ± 3.5 J/K/mol and the “molar heat capacity at constant pressure” value (136.05 K, Liquid) was 138.34 ± 3.4 J/K/mol. The “molar heat capacity at constant pressure” value (136.39 K, Liquid) was 145.03 ± 3.5 J/K/mol, the “molar heat capacity at constant pressure” value (137.22 K, Liquid) was 146.29 ± 3.5 J/K/mol and the “molar heat capacity at constant pressure” value (137.97 K, Liquid) was 138.35 ± 3.4 J/K/mol. The “molar heat capacity at constant pressure” value (138.36 K, Liquid) was 145.17 ± 3.5 J/K/mol, the “molar heat capacity at constant pressure” value (138.84 K, Liquid) was 146.59 ± 3.5 J/K/mol and the “molar heat capacity at constant pressure” value (139.21 K, Liquid) was 146.22 ± 3.5 J/K/mol. The “molar heat capacity at constant pressure” value (139.9 K, Liquid) was 138.69 ± 3.4 J/K/mol, the “molar heat capacity at constant pressure” value (140.33 K, Liquid) was 145.48 ± 3.5 J/K/mol and the “molar heat capacity at constant pressure” value (141.2 K, Liquid) was 146.34 ± 3.5 J/K/mol. The “molar heat capacity at constant pressure” value (141.77 K, Liquid) was 146.74 ± 3.5 J/K/mol, the “molar heat capacity at constant pressure” value (141.83 K, Liquid) was 139.02 ± 3.4 J/K/mol and the “molar heat capacity at constant pressure” value (142.3 K, Liquid) was 145.81 ± 3.5 J/K/mol. The “molar heat capacity at constant pressure” value (143.19 K, Liquid) was 146.48 ± 3.5 J/K/mol, the “molar heat capacity at constant pressure” value (143.77 K, Liquid) was 139.32 ± 3.4 J/K/mol and the “molar heat capacity at constant pressure” value (144.73 K, Liquid) was 146.91 ± 3.5 J/K/mol. For the same compound, the “molar heat capacity at constant pressure” value (145.18 K, Liquid) was 146.45 ± 3.5 J/K/mol, the “molar heat capacity at constant pressure” value (147.18 K, Liquid) was 146.59 ± 3.5 J/K/mol and the “molar heat capacity at constant pressure” value (147.68 K, Liquid) was 147.17 ± 3.5 J/K/mol. The “molar heat capacity at constant pressure” value (149.17 K, Liquid) was 146.66 ± 3.5 J/K/mol, the “molar heat capacity at constant pressure” value (150.63 K, Liquid) was 147.42 ± 3.5 J/K/mol and the “molar heat capacity at constant pressure” value (151.16 K, Liquid) was 146.74 ± 3.5 J/K/mol. The “molar heat capacity at constant pressure” value (153.16 K, Liquid) was 146.86 ± 3.5 J/K/mol, the “molar heat capacity at constant pressure” value (153.58 K, Liquid) was 147.65 ± 3.5 J/K/mol and the “molar heat capacity at constant pressure” value (155.16 K, Liquid) was 147.04 ± 3.5 J/K/mol. The “molar heat capacity at constant pressure” value (156.54 K, Liquid) was 148.06 ± 3.6 J/K/mol, the “molar heat capacity at constant pressure” value (157.16 K, Liquid) was 147.26 ± 3.5 J/K/mol and the “molar heat capacity at constant pressure” value (159.16 K, Liquid) was 147.41 ± 3.5 J/K/mol. The “molar heat capacity at constant pressure” value (159.5 K, Liquid) was 148.35 ± 3.6 J/K/mol, the “molar heat capacity at constant pressure” value (161.15 K, Liquid) was 147.59 ± 3.5 J/K/mol and the “molar heat capacity at constant pressure” value (162.46 K, Liquid) was 148.75 ± 3.6 J/K/mol. For the same compound, the “molar heat capacity at constant pressure” value (163.15 K, Liquid) was 147.87 ± 3.5 J/K/mol, the “molar heat capacity at constant pressure” value (165.15 K, Liquid) was 148.07 ± 3.6 J/K/mol and the “molar heat capacity at constant pressure” value (165.42 K, Liquid) was 149.14 ± 3.6 J/K/mol. For the same compound, the “molar heat capacity at constant pressure” value (167.15 K, Liquid) was 148.38 ± 3.6 J/K/mol.
